In patent US20080194701A1, “Bifunctional Enzyme with Y-Glutamylcysteine Synthetase and Glutathione Synthetase Activity and Uses Thereof” (priority 2004, published 2008):

Key:
S. agalactiae γ-GCS-GS = target: T1, S. agalactiae γ-GCS-GS (Streptococcus agalactiae serotype V, UniProt Q8DXM9); experiment: γ-GCS activity assay based on ADP formation, S. agalactiae γ-GCS-GS; format: biochemical; design: corresponded to full-length S. agalactiae γ-GCS-GS with an N-terminal His8-tag; made in house; host or cells: E. coli SG13009 with pQE30-gshAB plus pREP4 or pRARE; details: γ-GCS activity
T1 sequence (Q8DXM9 1-750): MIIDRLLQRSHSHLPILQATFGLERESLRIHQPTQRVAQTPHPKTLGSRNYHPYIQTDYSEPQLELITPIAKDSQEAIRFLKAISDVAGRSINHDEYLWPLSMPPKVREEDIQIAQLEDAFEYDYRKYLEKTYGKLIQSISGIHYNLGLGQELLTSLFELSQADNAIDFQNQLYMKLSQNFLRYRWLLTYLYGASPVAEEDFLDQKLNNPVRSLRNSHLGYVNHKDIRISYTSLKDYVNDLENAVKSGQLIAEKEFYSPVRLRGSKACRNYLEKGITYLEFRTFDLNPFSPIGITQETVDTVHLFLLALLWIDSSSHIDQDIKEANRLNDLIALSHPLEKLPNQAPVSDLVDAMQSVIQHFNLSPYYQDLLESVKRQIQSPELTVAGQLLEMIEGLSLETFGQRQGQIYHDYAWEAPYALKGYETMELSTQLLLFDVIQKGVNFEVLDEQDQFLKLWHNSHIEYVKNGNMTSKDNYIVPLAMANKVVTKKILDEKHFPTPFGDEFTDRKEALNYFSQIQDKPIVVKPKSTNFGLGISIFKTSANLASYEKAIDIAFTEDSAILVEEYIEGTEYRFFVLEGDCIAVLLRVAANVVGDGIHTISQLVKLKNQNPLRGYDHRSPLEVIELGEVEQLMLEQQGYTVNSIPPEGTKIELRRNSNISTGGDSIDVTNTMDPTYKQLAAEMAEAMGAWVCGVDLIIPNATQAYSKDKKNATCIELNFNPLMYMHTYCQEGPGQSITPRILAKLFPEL
Procedure: In Table 1, a unit was defined as the amount of enzyme activity required to catalyze the formation of 1 μmol of product per hour. Specific activity was shown as units per mg protein. Activity was determined at 37° C. based on ADP formation in reaction mixtures containing L-glutamate and L-cysteine and using pyruvate kinase and lactate dehydrogenase to couple ADP formation to NADH oxidation, which was monitored at 340 nm.
Exp. Purif. 13, 268-276 (1998).
At set time points ranging from one to 30 minutes, 5 μl aliquots were removed and assayed for residual enzyme activity using the standard γ-GCS assay based on ADP formation.

S. mutans γ-GCS-GS = S. mutans γ-GCS-GS (Streptococcus mutans serotype c, UniProt Q8DW15); experiment: γ-GCS activity of S. mutans γ-GCS-GS; details: substrate Km, γ-GCS activity
Chain of S. mutans γ-GCS-GS (Q8DW15 whole entry): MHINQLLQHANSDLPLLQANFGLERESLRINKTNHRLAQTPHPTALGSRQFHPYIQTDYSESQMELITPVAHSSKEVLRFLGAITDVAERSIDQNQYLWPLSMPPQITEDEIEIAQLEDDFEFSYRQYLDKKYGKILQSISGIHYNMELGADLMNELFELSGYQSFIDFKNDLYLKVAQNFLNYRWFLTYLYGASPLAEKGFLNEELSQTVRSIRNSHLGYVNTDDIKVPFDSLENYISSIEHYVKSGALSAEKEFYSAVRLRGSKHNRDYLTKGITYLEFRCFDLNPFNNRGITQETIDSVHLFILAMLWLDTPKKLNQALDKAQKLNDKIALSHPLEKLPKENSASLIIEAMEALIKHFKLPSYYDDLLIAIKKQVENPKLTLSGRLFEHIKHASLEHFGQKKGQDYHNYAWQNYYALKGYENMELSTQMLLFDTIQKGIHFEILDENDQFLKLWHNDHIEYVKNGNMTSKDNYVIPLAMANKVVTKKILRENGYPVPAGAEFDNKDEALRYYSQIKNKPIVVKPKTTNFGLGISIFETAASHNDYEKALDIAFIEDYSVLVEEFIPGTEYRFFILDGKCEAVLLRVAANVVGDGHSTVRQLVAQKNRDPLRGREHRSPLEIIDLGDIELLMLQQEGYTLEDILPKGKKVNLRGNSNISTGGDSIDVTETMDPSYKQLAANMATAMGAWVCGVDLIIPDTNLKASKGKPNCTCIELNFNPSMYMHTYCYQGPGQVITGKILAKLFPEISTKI
Excerpt: 3′ and 5′ […] 3′ and introduced unique Bgl II and Hind III sites (underlined), respectively.

Human γ-GCS = target: T2, Human γ-GCS (Homo sapiens, UniProt P48506); details: cited from earlier work
T2 sequence (P48506 1-637): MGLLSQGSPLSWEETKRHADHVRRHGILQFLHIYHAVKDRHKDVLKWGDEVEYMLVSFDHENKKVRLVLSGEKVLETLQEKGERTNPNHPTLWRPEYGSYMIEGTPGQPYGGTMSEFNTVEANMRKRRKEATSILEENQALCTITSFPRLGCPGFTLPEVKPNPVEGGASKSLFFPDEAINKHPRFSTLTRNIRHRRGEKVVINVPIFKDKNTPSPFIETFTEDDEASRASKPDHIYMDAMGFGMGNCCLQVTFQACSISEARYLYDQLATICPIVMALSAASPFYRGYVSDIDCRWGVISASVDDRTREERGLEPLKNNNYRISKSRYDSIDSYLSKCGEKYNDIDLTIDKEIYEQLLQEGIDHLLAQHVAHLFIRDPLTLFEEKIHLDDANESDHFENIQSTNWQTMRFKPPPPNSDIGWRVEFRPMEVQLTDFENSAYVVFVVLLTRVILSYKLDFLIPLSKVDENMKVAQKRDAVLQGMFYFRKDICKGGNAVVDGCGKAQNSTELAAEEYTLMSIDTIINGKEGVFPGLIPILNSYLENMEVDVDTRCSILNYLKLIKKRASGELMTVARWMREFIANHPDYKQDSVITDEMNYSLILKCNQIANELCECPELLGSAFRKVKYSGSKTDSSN
T2 sequence (P48507 1-274 partner): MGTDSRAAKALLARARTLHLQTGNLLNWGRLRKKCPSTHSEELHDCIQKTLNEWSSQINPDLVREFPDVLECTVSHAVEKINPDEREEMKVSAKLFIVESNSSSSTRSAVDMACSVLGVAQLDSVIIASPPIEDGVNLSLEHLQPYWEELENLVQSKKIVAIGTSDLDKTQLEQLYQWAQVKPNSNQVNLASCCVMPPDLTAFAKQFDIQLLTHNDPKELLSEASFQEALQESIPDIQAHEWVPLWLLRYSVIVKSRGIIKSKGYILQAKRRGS

E. faecalis γ-GCS-GS = E. faecalis γ-GCS-GS (Enterococcus faecalis, UniProt Q82ZG8); experiment: γ-GCS activity of E. faecalis γ-GCS-GS; details: substrate Km, γ-GCS activity
Chain of E. faecalis γ-GCS-GS (Q82ZG8 whole entry): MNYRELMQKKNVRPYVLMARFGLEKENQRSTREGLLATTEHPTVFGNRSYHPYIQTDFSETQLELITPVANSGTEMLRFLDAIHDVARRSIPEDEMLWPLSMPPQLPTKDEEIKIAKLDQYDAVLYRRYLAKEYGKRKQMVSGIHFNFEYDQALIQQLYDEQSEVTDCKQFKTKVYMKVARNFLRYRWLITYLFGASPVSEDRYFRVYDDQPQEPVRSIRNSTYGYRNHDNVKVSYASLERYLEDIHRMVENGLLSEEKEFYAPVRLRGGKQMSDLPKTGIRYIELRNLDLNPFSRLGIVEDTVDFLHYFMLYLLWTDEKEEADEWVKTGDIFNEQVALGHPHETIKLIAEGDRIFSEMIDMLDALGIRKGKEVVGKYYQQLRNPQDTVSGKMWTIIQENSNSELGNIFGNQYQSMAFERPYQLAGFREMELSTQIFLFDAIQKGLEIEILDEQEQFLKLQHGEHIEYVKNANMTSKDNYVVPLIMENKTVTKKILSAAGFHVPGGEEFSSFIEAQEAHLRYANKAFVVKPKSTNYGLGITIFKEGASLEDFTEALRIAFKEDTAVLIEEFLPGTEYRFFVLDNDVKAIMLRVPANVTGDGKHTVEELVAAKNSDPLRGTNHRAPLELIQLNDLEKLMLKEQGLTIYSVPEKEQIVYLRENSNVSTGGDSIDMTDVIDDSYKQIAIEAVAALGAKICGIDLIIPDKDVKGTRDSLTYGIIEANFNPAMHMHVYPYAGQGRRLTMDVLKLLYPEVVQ

Human GS = target: T3, Human GS (Homo sapiens, UniProt P48637); details: cited from earlier work
T3 sequence (P48637 1-474): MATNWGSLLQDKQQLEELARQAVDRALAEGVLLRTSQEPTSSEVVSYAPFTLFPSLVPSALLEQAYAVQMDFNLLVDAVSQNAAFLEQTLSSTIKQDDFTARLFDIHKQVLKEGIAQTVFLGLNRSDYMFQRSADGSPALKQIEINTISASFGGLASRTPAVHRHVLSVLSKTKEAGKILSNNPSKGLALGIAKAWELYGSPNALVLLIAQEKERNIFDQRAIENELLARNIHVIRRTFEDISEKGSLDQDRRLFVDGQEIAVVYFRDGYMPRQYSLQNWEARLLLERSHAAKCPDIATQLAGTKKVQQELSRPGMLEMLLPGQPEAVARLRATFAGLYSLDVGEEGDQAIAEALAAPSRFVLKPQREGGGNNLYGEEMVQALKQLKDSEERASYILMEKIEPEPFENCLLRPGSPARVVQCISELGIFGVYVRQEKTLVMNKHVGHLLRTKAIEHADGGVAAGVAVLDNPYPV

E. coli GS = E. coli GS (Escherichia coli, UniProt P04425); details: cited from earlier work
Chain of E. coli GS (P04425 whole entry): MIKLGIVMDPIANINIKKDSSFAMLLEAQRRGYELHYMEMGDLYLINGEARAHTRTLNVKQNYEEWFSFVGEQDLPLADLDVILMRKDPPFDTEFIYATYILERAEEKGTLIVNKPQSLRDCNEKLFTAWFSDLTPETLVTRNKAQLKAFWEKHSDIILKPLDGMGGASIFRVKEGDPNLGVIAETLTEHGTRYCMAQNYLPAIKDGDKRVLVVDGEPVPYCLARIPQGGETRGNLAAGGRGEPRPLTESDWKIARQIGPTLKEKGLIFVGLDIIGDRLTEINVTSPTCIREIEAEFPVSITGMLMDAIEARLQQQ

E. coli γ-GCS = E. coli γ-GCS (Escherichia coli, UniProt P0A6W9); details: cited from earlier work
Chain of E. coli γ-GCS (P0A6W9 whole entry): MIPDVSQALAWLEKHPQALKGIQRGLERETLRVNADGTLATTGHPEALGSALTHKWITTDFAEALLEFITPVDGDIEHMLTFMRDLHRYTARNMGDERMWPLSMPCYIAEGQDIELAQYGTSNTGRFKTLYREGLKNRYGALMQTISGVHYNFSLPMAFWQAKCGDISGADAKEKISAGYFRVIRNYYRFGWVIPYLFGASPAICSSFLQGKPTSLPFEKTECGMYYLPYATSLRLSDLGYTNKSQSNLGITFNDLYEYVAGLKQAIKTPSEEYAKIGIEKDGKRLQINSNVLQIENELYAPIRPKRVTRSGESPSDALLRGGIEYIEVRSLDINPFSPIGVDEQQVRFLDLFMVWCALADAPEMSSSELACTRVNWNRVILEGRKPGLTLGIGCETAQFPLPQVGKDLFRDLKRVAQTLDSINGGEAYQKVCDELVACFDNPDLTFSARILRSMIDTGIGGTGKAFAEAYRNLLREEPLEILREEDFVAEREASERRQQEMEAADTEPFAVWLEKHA

Compound `Nc1ncnc2c1ncn2[C@@H]1O[C@H](COP(=O)(O)OP(=O)(O)OP(=O)(O)O)[C@@H](O)[C@H]1O` [ATP] has a Km (S. agalactiae γ-GCS-GS; substrate Km) of 66 ± 9 µM, a Vmax (S. agalactiae γ-GCS-GS; unit = 1 μmol product per hour) of 1332 ± 120 units/mg and a Km (S. mutans γ-GCS-GS) of 288 ± 105 µM. For the same compound, the Km (Human γ-GCS; substrate Km) was 400 ± 40 µM, the Vmax (Human γ-GCS; unit = 1 μmol product per hour) was about 1500 units/mg and the Km (E. faecalis γ-GCS-GS) was 2300 ± 100 µM. The Vmax (Human GS) was 361 ± 84 units/mg, the Km (Human GS; substrate Km) was 220 ± 30 µM and the Vmax (E. coli GS) was 650 units/mg. For the same compound, the Km (E. coli GS; substrate Km) was 1800 µM, the Km (E. coli γ-GCS; substrate Km) was 62 µM and the Vmax (E. coli γ-GCS; unit = 1 μmol product per hour) was about 3000 units/mg.
